Active and inactive are the calls of the source. The calls are words filed in the database; no cut-off is given here.
Columns and labels:
[1] = system: MV4-11; test: Anticancer activity against human MV4-11 cells expressing FLT3-ITD mutant; assay type: functional, cell-based
[2] = system: MOLM-13; test: Anticancer activity against human MOLM-13 cells; assay type: functional, cell-based
[3] = system: MV4-11; test: Induction of cell cycle arrest in human MV4-11 cells assessed as accumulation of G1 phase cells at 0.001 uM by PI staining based flow cytometric analysis (reference value: 60.77 % ); assay type: functional
[4] = system: MV4-11; test: Induction of cell cycle arrest in human MV4-11 cells assessed as G2 phase cells at 0.001 uM by PI staining based flow cytometric analysis (reference value: 12.61 % ); assay type: functional
[5] = system: MV4-11; test: Induction of cell cycle arrest in human MV4-11 cells assessed as S phase cells at 0.001 uM by PI staining based flow cytometric analysis (reference value: 26.62 % ); assay type: functional
[6] = system: MV4-11; test: Induction of cell cycle arrest in human MV4-11 cells assessed as accumulation of G1 phase cells at 0.01 uM by PI staining based flow cytometric analysis (reference value: 60.77 % ); assay type: functional
[7] = system: MV4-11; test: Induction of cell cycle arrest in human MV4-11 cells assessed as G2 phase cells at 0.01 uM by PI staining based flow cytometric analysis (reference value: 12.61 % ); assay type: functional
[8] = system: MV4-11; test: Induction of cell cycle arrest in human MV4-11 cells assessed as S phase cells at 0.01 uM by PI staining based flow cytometric analysis (reference value: 26.62 % ); assay type: functional
[9] = system: MV4-11; test: Induction of cell cycle arrest in human MV4-11 cells assessed as accumulation of G1 phase cells at 0.1 uM by PI staining based flow cytometric analysis (reference value: 60.77 % ); assay type: functional
[10] = system: MV4-11; test: Induction of cell cycle arrest in human MV4-11 cells assessed as G2 phase cells at 0.1 uM by PI staining based flow cytometric analysis (reference value: 12.61 % ); assay type: functional
[11] = system: MV4-11; test: Induction of cell cycle arrest in human MV4-11 cells assessed as S phase cells at 0.1 uM by PI staining based flow cytometric analysis (reference value: 26.62 % ); assay type: functional
[12] = system: MV4-11; test: Induction of cell cycle arrest in human MV4-11 cells assessed as accumulation of G1 phase cells at 1 uM by PI staining based flow cytometric analysis (reference value: 60.77 % ); assay type: functional
[13] = system: MV4-11; test: Induction of cell cycle arrest in human MV4-11 cells assessed as G2 phase cells at 1 uM by PI staining based flow cytometric analysis (reference value: 12.61 % ); assay type: functional
[14] = system: MV4-11; test: Induction of cell cycle arrest in human MV4-11 cells assessed as S phase cells at 1 uM by PI staining based flow cytometric analysis (reference value: 26.62 % ); assay type: functional
[15] = system: MV4-11; test: Induction of cell cycle arrest in human MV4-11 cells assessed as accumulation of G1 phase cells at 10 uM by PI staining based flow cytometric analysis (reference value: 60.77 % ); assay type: functional
[16] = system: MV4-11; test: Induction of cell cycle arrest in human MV4-11 cells assessed as G2 phase cells at 10 uM by PI staining based flow cytometric analysis (reference value: 12.61 % ); assay type: functional
[17] = system: MV4-11; test: Induction of cell cycle arrest in human MV4-11 cells assessed as S phase cells at 10 uM by PI staining based flow cytometric analysis (reference value: 26.62 % ); assay type: functional
[18] = system: CCRF-CEM; test: Anticancer activity against FLT3-independent human CCRF-CEM cells; assay type: functional, cell-based
[19] = system: THP-1; test: Anticancer activity against human THP-1 cells; assay type: functional, cell-based
[20] = system: K562; test: Anticancer activity against human K562 cells; assay type: functional, cell-based
[21] = system: MCF7; test: Anticancer activity against human MCF7 cells; assay type: functional, cell-based
[22] = target: Cyclin-dependent kinase 2 (Homo sapiens) (UniProt P24941); test: Inhibition of CDK2 (unknown origin)
[23] = target: Cyclin-dependent kinase 9 (Homo sapiens) (UniProt P50750); test: Inhibition of CDK9 (unknown origin)
Sequence of Cyclin-dependent kinase 9 (Homo sapiens) (P50750 whole entry): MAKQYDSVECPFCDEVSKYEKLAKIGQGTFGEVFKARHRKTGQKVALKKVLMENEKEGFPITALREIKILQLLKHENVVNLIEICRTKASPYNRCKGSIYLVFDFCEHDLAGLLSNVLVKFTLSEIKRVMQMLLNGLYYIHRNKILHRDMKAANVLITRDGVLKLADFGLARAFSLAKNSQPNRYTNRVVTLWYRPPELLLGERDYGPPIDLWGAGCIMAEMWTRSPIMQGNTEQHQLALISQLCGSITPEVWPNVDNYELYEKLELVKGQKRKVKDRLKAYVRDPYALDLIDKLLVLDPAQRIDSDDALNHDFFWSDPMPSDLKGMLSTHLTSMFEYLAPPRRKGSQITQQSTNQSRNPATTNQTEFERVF

[24] = target: Receptor-type tyrosine-protein kinase FLT3 (Homo sapiens) (UniProt P36888); test: Inhibition of FLT3 autophosphorylation at tyrosine 589/591 residues in human MV4-11 cells at 0.01 uM incubated for 1 hrs by immunoblotting analysis; assay type: cell-based
Sequence of Receptor-type tyrosine-protein kinase FLT3 (Homo sapiens) (P36888 whole entry): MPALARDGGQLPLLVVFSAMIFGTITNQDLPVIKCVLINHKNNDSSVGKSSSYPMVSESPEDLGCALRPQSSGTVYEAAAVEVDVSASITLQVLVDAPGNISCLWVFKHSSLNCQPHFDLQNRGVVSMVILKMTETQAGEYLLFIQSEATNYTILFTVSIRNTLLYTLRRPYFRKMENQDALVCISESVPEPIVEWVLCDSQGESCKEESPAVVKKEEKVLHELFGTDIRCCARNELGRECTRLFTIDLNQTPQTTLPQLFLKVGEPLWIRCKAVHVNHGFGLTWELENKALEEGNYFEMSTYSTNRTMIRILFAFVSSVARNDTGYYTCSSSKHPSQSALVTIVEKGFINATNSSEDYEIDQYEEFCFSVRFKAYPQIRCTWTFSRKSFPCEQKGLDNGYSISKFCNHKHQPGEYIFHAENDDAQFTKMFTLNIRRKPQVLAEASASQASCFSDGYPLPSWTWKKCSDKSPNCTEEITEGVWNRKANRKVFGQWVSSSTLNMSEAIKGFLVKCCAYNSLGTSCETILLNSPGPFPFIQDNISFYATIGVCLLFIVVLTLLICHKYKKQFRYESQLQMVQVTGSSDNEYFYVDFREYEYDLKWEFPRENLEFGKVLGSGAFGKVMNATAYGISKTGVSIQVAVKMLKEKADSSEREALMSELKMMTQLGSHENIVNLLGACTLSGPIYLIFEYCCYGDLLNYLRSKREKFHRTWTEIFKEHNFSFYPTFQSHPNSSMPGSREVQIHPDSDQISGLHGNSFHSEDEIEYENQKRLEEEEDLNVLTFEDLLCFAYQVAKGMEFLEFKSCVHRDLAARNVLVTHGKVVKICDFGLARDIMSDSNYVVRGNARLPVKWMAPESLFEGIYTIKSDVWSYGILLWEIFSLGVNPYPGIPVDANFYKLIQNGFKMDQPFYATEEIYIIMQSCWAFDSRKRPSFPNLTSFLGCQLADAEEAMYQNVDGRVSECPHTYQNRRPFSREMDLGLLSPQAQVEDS

[25] = target: T1, Signal transducer and activator of transcription 5A (Homo sapiens) (UniProt P42229); test: Inhibition of STAT5 phosphorylation in human MV4-11 cells at 0.01 uM incubated for 1 hrs by immunoblotting analysis; assay type: cell-based
T1 sequence (whole entry): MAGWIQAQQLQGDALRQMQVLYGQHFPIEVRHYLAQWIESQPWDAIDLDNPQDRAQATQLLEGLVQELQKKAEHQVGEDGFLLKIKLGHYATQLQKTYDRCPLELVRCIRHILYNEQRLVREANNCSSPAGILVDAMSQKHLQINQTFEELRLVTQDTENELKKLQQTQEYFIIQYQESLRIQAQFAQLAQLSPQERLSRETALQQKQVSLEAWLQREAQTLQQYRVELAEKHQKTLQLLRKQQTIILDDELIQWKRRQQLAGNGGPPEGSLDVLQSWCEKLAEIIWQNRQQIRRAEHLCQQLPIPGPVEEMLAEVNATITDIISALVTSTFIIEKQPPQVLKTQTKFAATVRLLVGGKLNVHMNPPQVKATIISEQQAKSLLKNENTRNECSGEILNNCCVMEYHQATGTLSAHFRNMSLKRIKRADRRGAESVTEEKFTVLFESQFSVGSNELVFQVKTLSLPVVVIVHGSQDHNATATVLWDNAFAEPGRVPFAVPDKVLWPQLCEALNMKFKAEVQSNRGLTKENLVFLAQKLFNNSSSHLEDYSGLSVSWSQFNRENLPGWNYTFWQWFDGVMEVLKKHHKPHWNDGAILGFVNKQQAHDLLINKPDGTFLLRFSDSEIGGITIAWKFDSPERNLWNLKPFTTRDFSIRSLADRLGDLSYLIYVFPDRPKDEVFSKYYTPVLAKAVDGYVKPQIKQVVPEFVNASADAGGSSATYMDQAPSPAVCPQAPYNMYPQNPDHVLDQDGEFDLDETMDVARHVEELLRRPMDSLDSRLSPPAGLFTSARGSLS

[26] = target: Mitogen-activated protein kinase; ERK1/ERK2 (Homo sapiens) (UniProt P27361+P28482); test: Inhibition of ERK1/2 phosphorylation at Thr202/Tyr204 residues in human MV4-11 cells at 0.1 uM incubated for 1 hrs by immunoblotting analysis; assay type: cell-based
Sequence of Mitogen-activated protein kinase; ERK1/ERK2 (Homo sapiens) (P27361 whole entry, looked up): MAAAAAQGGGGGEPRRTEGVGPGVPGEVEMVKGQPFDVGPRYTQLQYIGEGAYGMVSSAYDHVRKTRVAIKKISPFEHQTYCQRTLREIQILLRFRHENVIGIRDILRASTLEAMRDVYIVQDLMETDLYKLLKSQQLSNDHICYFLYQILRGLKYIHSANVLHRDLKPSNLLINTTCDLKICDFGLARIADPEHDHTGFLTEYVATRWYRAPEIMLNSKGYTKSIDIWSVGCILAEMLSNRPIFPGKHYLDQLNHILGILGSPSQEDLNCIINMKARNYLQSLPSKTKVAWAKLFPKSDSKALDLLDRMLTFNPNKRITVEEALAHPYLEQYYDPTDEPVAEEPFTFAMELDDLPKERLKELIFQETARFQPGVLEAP
Sequence of Mitogen-activated protein kinase; ERK1/ERK2 (Homo sapiens) (P28482 whole entry, looked up): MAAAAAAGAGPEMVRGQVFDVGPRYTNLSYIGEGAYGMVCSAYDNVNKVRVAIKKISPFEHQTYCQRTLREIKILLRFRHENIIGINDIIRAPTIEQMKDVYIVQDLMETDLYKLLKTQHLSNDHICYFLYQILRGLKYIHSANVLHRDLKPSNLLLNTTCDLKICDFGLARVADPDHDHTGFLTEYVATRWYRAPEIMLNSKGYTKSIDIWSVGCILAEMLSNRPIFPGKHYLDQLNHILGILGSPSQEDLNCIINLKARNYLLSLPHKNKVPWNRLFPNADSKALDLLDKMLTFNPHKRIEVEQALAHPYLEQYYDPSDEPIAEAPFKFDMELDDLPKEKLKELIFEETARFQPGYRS

## NCCCCNc1cc(Nc2ccc(CN3CCOCC3)cc2)n2ncc(C3CCCC3)c2n1
[1]
  Activity: Active
[2]
  Activity: Active

## N[C@H]1CC[C@H](Nc2cc(Nc3ccc(N4CC5(COC5)C4)cc3)n3ncc(C4CCCC4)c3n2)CC1
[1]
  Activity: Active
[2]
  Activity: Active

## N[C@H]1CC[C@H](Nc2cc(Nc3ccc(CN4CCOCC4)cc3)n3ncc(C4CCCC4)c3n2)CC1
[3]
  Activity: 59.36%
[4]
  Activity: 14.62%
[5]
  Activity: 26.03%
[6]
  Activity: 61.96%
[7]
  Activity: 12.79%
[8]
  Activity: 25.25%
[9]
  Activity: 86.23%
[10]
  Activity: 5.11%
[11]
  Activity: 8.66%
[12]
  Activity: 76.39%
[13]
  Activity: 7.13%
[14]
  Activity: 16.48%
[15]
  Activity: 75.69%
[16]
  Activity: 5.93%
[17]
  Activity: 18.38%
[1]
  Activity: Active
[2]
  Activity: Active
[18]
  Activity: Active
[19]
  Activity: Active
[20]
  Activity: Active
[21]
  Activity: Active
[22]
  inhibition: Active
[23]
  inhibition: Active
[24]
  inhibition: Active
[25]
  inhibition: Active
[26]
  inhibition: Active

## N[C@H]1CC[C@H](Nc2cc(Nc3ccc(-c4cccs4)nc3)n3ncc(C4CCCC4)c3n2)CC1
[1]
  Activity: Active
[2]
  Activity: Active
[18]
  Activity: Active
[19]
  Activity: Active
[20]
  Activity: Active
[21]
  Activity: Active
[22]
  inhibition: Active
[23]
  inhibition: Active

## NCCCCNc1cc(NCc2cccc(CN3CCOCC3)c2)n2ncc(C3CCCC3)c2n1
[1]
  Activity: Active
[2]
  Activity: Active

## N[C@H]1CC[C@H](Nc2cc(NCc3ccc(Br)cc3)n3ncc(C4CCCC4)c3n2)CC1
[1]
  Activity: Active
[2]
  Activity: Active

## CC[C@@H](CO)Nc1cc(Nc2ccc(-c3cccs3)nc2)n2ncc(C3CCCC3)c2n1
[1]
  Activity: Active
[2]
  Activity: Active

## N[C@H]1CC[C@H](Nc2cc(Nc3cccc(CN4CCOCC4)c3)n3ncc(C4CCCC4)c3n2)CC1
[1]
  Activity: Active
[2]
  Activity: Active
